Experimental findings from patent US10004701B2, “Methods and compositions for treating infection” (UNIVERSITY OF ROCHESTER, priority 2012, dated 2018) are described below.

Common to all, as to test: AK assay 384-well format, Prestwick library screening
One experiment concerns E. cloacae. The class given is cell-based, Enterobacter cloacae. To be noted: 50 μM final drug concentration; for fold induction at 50 µM: Enterobacter cloacae, 3 h.
Experiment [1] relates to S. aureus strain USA300-0114. The format is cell-based, Staphylococcus aureus. The note with it: 50 μM final drug concentration; for fold induction at 50 µM: Staphylococcus aureus, USA300, 3 h.
Experiment [2] deals with A. baumannii strain 98-37-09. The class given is cell-based, Acinetobacter baumannii. The note with it: 50 μM final drug concentration; for fold induction at 50 µM: Acinetobacter baumannii, 983709, 3 h.
The test system of the next experiment is P. aeruginosa. The class given is cell-based, Pseudomonas aeruginosa. To be noted: 50 μM final drug concentration; for fold induction at 50 µM: Pseudomonas aeruginosa, 3 h.
For the next experiment, the system named is K. pneumoniae. The class given is cell-based, Klebsiella pneumoniae. To be noted: 50 μM final drug concentration; for fold induction at 50 µM: Klebsiella pneumoniae, 3 h.
The subject of a further experiment is E. coli. The class given is cell-based, Escherichia coli. To be noted: 50 μM final drug concentration; for fold induction at 50 µM: Escherichia coli, 3 h.
The next experiment has as its system E. faecium. The format is cell-based, Enterococcus faecium. The note with it: 50 μM final drug concentration; for fold induction at 50 µM: Enterococcus faecium, 3 h.
The mark [3] stands for this setting: cutoff for positive-scoring molecules 3-fold increase.
Setting [4] is: planktonic, cutoff for positive-scoring molecules 3-fold increase, read-out: AK-based Prestwick Library Screening Results, E. cloacae (fold increase in extracellular AK activity).
[5] abbreviates: planktonic, cutoff for positive-scoring molecules 3-fold increase, read-out: AK-based Prestwick Library Screening Results, S. aureus (fold increase in extracellular AK activity).
Where [6] appears, read: planktonic, cutoff for positive-scoring molecules 3-fold increase, read-out: AK-based Prestwick Library Screening Results, A. baumannii (fold increase in extracellular AK activity).
Where [7] appears, read: planktonic, cutoff for positive-scoring molecules 3-fold increase, read-out: AK-based Prestwick Library Screening Results, P. aeruginosa (fold increase in extracellular AK activity).
[8] abbreviates: planktonic, cutoff for positive-scoring molecules 3-fold increase, read-out: AK-based Prestwick Library Screening Results, K. pneumoniae (fold increase in extracellular AK activity).
[9] abbreviates: planktonic, cutoff for positive-scoring molecules 3-fold increase, read-out: AK-based Prestwick Library Screening Results, E. coli (fold increase in extracellular AK activity).
The mark [10] stands for this setting: planktonic, cutoff for positive-scoring molecules 3-fold increase, read-out: AK-based Prestwick Library Screening Results, E. faecium (fold increase in extracellular AK activity).
[11] abbreviates: planktonic E. cloacae, cutoff for positive-scoring molecules 3-fold increase, read-out: AK-based Prestwick Library Screening Results, E. cloacae (increase in extracellular AK activity).
Setting [12] is: planktonic S. aureus, cutoff for positive-scoring molecules 3-fold increase, read-out: AK-based Prestwick Library Screening Results, S. aureus (increase in extracellular AK activity).
The mark [13] stands for this setting: planktonic A. baumannii, cutoff for positive-scoring molecules 3-fold increase, read-out: AK-based Prestwick Library Screening Results, A. baumannii (increase in extracellular AK activity).
[14] abbreviates: planktonic P. aeruginosa, cutoff for positive-scoring molecules 3-fold increase, read-out: AK-based Prestwick Library Screening Results, P. aeruginosa (increase in extracellular AK activity).
Setting [15] is: planktonic K. pneumoniae, cutoff for positive-scoring molecules 3-fold increase, read-out: AK-based Prestwick Library Screening Results, K. pneumoniae (increase in extracellular AK activity).
The mark [16] stands for this setting: planktonic E. coli, cutoff for positive-scoring molecules 3-fold increase, read-out: AK-based Prestwick Library Screening Results, E. coli (increase in extracellular AK activity).
Where [17] appears, read: planktonic E. faecium, cutoff for positive-scoring molecules 3-fold increase, read-out: AK-based Prestwick Library Screening Results, E. faecium (increase in extracellular AK activity).
Where [18] appears, read: planktonic, cutoff for positive 3-fold increase.

Counter-ions that a name gives are not always drawn. Like-named read-outs stand apart in the source and are kept apart here. Where a SMILES comes first, the peptide text is derived from it. Bridges are numbered along the chain shown (N, C = ends). [ ]: non-standard residue; d: D form. The star is where a group is joined. Ileψ(thiazoline)Cys = CC[C@H](C)[C@H](N)C1=N[C@H](C(=O)*)CS1; dOrn = NCCC[C@@H](N)C(=O)O

Consider `Nc1ncnc2c1ncn2[C@@H]1O[C@H](COP(=O)(O)O)[C@@H](O)[C@H]1O` [Adenosine 5′-monophosphate monohydrate], for which the fold induction at 50 µM is 1.2 in the experiment with E. cloacae (planktonic E. cloacae, […], read-out: AK-based Prestwick Library Screening Results, E. cloacae (increase in extracellular AK activity)); 0.6 in experiment [1] (planktonic S. aureus, […], read-out: AK-based Prestwick Library Screening Results, S. aureus (increase in extracellular AK activity)); 0.7 in experiment [2] (planktonic A. baumannii, […], read-out: AK-based Prestwick Library Screening Results, A. baumannii (increase in extracellular AK activity)); 0.8 with P. aeruginosa (planktonic P. aeruginosa, […], read-out: AK-based Prestwick Library Screening Results, P. aeruginosa (increase in extracellular AK activity)); 0.6 in the experiment with K. pneumoniae (planktonic K. pneumoniae, […], read-out: AK-based Prestwick Library Screening Results, K. pneumoniae (increase in extracellular AK activity)); 0.8 in the experiment on E. coli (planktonic E. coli, […], read-out: AK-based Prestwick Library Screening Results, E. coli (increase in extracellular AK activity)). The fold induction at 50 µM with E. faecium (planktonic E. faecium, […], read-out: AK-based Prestwick Library Screening Results, E. faecium (increase in extracellular AK activity)) worked out at 0.8.
Consider `C[C@H](CCC(=O)O)[C@H]1CC[C@H]2[C@@H]3[C@@H](O)C[C@@H]4C[C@H](O)CC[C@]4(C)[C@H]3CC[C@]12C` [Urosiol], for which, in the experiment on E. cloacae (setting [3]), the “AK-based Prestwick Library Screening Results, E. cloacae (fold increase in extracellular AK activity)” value was 1.4. For the same compound, in experiment [1] (setting [3]), the “AK-based Prestwick Library Screening Results, S. aureus (fold increase in extracellular AK activity)” value is reported as 1.2. Also, in experiment [2] (setting [3]), the “AK-based Prestwick Library Screening Results, A. baumannii (fold increase in extracellular AK activity)” value is listed as 1.3. Besides, the “AK-based Prestwick Library Screening Results, P. aeruginosa (fold increase in extracellular AK activity)” value with P. aeruginosa (setting [3]) stood at 1.2. In the experiment on K. pneumoniae (setting [3]), the “AK-based Prestwick Library Screening Results, K. pneumoniae (fold increase in extracellular AK activity)” value is listed as 1.0. In addition, the “AK-based Prestwick Library Screening Results, E. coli (fold increase in extracellular AK activity)” value in the experiment with E. coli (setting [3]) is recorded as 1.2. Moreover, the “AK-based Prestwick Library Screening Results, E. faecium (fold increase in extracellular AK activity)” value in the experiment with E. faecium (setting [3]) is 1.0.
As for `COc1cc2nc(N3CCN(C(=O)C4COc5ccccc5O4)CC3)nc(N)c2cc1OC` (stereo not drawn) [Doxazosin mesylate], the fold induction at 50 µM worked out at 1.5 in the experiment on E. cloacae (cutoff for positive-scoring molecules 3-fold increase, read-out: AK-based Prestwick Library Screening Results, E. cloacae (fold increase in extracellular AK activity)); 1.2 in experiment [1] (cutoff for positive-scoring molecules 3-fold increase, read-out: AK-based Prestwick Library Screening Results, S. aureus (fold increase in extracellular AK activity)); 1.3 in experiment [2] (cutoff for positive-scoring molecules 3-fold increase, read-out: AK-based Prestwick Library Screening Results, A. baumannii (fold increase in extracellular AK activity)); 1.1 in the experiment with P. aeruginosa (cutoff for positive-scoring molecules 3-fold increase, read-out: AK-based Prestwick Library Screening Results, P. aeruginosa (fold increase in extracellular AK activity)); 0.9 in the experiment on K. pneumoniae (cutoff for positive-scoring molecules 3-fold increase, read-out: AK-based Prestwick Library Screening Results, K. pneumoniae (fold increase in extracellular AK activity)); 1.4 in the experiment on E. coli (cutoff for positive-scoring molecules 3-fold increase, read-out: AK-based Prestwick Library Screening Results, E. coli (fold increase in extracellular AK activity)). Further, the fold induction at 50 µM in the experiment with E. faecium (cutoff for positive-scoring molecules 3-fold increase, read-out: AK-based Prestwick Library Screening Results, E. faecium (fold increase in extracellular AK activity)) is 1.1.
On to `O=C1OCCN1/N=C/c1ccc([N+](=O)[O-])o1` [Furazolidone], for which the fold induction at 50 µM in the experiment on E. cloacae (setting [4]) amounted to 0.6; in experiment [1] (setting [5]) it was 0.8; in experiment [2] (setting [6]) it was 0.4; with P. aeruginosa (setting [7]) it was 0.6; in the experiment on K. pneumoniae (setting [8]), 3.2; in the experiment on E. coli (setting [9]) it was 0.8. The fold induction at 50 µM in the experiment with E. faecium (setting [10]) turned out to be 0.9.
Take `CNCCCC12CCC(c3ccccc31)c1ccccc12` [Maprotiline hydrochloride]: the fold induction at 50 µM with E. cloacae (setting [11]) amounted to 0.9; in experiment [1] (setting [12]), 1.1; in experiment [2] (setting [13]), 0.8; in the experiment with P. aeruginosa (setting [14]) it was 0.9; in the experiment on K. pneumoniae (setting [15]), 0.6; in the experiment with E. coli (setting [16]) it was 0.8. For the same compound, the fold induction at 50 µM with E. faecium (setting [17]) came to 0.8.
`O=C(CCCN1CCC(O)(c2ccc(Br)cc2)CC1)c1ccc(F)cc1` [Bromperidol]: the fold induction at 50 µM with E. cloacae (setting [11]) turned out to be 1.1; in experiment [1] (setting [12]), 0.7; in experiment [2] (setting [13]) it was 1; with P. aeruginosa (setting [14]) it was 1.1; with K. pneumoniae (setting [15]) it was 0.7; in the experiment on E. coli (setting [16]) it was 0.8. Moreover, the fold induction at 50 µM with E. faecium (setting [17]) amounted to 0.9.
For the compound `CC[C@H](C)[C@H](N)C1=N[C@H](C(=O)N[C@@H](CC(C)C)C(=O)N[C@H](CCC(=O)O)C(=O)N[C@H](C(=O)N[C@H]2CCCCNC(=O)[C@H](CC(N)=O)NC(=O)[C@@H](CC(=O)O)NC(=O)[C@H](Cc3cnc[nH]3)NC(=O)[C@@H](Cc3ccccc3)NC(=O)[C@H]([C@@H](C)CC)NC(=O)[C@@H](CCCN)NC2=O)[C@@H](C)CC)CS1` [Bacitracin] ({Ileψ(thiazoline)Cys}-L[dE]IK[dOrn]I[dF]H[dD]N; lactam 4-C), the fold induction at 50 µM turned out to be 1.2 with E. cloacae (setting [4]); 0.4 in experiment [1] (setting [5]); 1.1 in experiment [2] (setting [6]); 0.8 in the experiment with P. aeruginosa (setting [7]); 0.8 in the experiment on K. pneumoniae (setting [8]); 1 in the experiment with E. coli (setting [9]). Moreover, the fold induction at 50 µM in the experiment with E. faecium (setting [10]) is 1.3.
On to `CCn1cc(C(=O)O)c(=O)c2cc3c(cc21)OCO3` [Oxolinic acid], for which the fold induction at 50 µM with E. cloacae (384-well format, cutoff for positive-scoring molecules 3-fold increase, read-out: AK-based Prestwick Library Screening Results, E. cloacae (increase in extracellular AK activity)) stood at 4.3; in experiment [1] (384-well format, cutoff for positive-scoring molecules 3-fold increase, read-out: AK-based Prestwick Library Screening Results, S. aureus (increase in extracellular AK activity)), 1; in experiment [2] (384-well format, cutoff for positive-scoring molecules 3-fold increase, read-out: AK-based Prestwick Library Screening Results, A. baumannii (increase in extracellular AK activity)) it was 2.3; with P. aeruginosa (384-well format, cutoff for positive-scoring molecules 3-fold increase, read-out: AK-based Prestwick Library Screening Results, P. aeruginosa (increase in extracellular AK activity)), 1; in the experiment with K. pneumoniae (384-well format, cutoff for positive-scoring molecules 3-fold increase, read-out: AK-based Prestwick Library Screening Results, K. pneumoniae (increase in extracellular AK activity)) it was 1.6; in the experiment with E. coli (384-well format, cutoff for positive-scoring molecules 3-fold increase, read-out: AK-based Prestwick Library Screening Results, E. coli (increase in extracellular AK activity)), 13.1. Moreover, the fold induction at 50 µM in the experiment on E. faecium (384-well format, cutoff for positive-scoring molecules 3-fold increase, read-out: AK-based Prestwick Library Screening Results, E. faecium (increase in extracellular AK activity)) turned out to be 1.1.
On to `COc1cc2c(cc1OC)C(C)NCC2.Cl` (stereo not drawn), for which, in the experiment with E. cloacae (setting [18]), the “AK-based Prestwick Library Screening Results, E. cloacae (fold increase in extracellular AK activity)” value was determined as 1.5. Besides, the “AK-based Prestwick Library Screening Results, S. aureus (fold increase in extracellular AK activity)” value in experiment [1] (setting [18]) was 1.0. Moreover, in experiment [2] (setting [18]), the “AK-based Prestwick Library Screening Results, A. baumannii (fold increase in extracellular AK activity)” value turned out to be 1.0. Also, in the experiment on P. aeruginosa (setting [18]), the “AK-based Prestwick Library Screening Results, P. aeruginosa (fold increase in extracellular AK activity)” value stood at 1.2. Further, the “AK-based Prestwick Library Screening Results, K. pneumoniae (fold increase in extracellular AK activity)” value in the experiment with K. pneumoniae (setting [18]) is 1.0. Moreover, in the experiment with E. coli (planktonic, […]), the “AK-based Prestwick Library Screening Results, E. coli (fold increase in extracellular AK activity)” value is 1.3. Also, the “AK-based Prestwick Library Screening Results, E. faecium (fold increase in extracellular AK activity)” value in the experiment with E. faecium (setting [18]) worked out at 0.9.
